≈ marks a conversion by molar mass, not a printed value.
How the values were obtained:
Type in all cases: functional, organism-based
Plasmodium falciparum [1] = test: Antimalarial activity against Plasmodium falciparum K1 after 48 hrs by [3H]hypoxanthine incorporation assay
Plasmodium falciparum [2] = test: Antimalarial activity against Plasmodium falciparum HB3 after 48 hrs by [3H]hypoxanthine incorporation assay
Plasmodium falciparum [3] = test: Antimalarial activity against chloroquine-sensitive Plasmodium falciparum 3D7 after 72 hrs by SYBR green dye-based spectrofluorometer analysis; conditions: 3D7, 72 h
Plasmodium falciparum [4] = test: Antimalarial activity against chloroquine-resistant Plasmodium falciparum K1 after 72 hrs by SYBR green dye-based spectrofluorometer analysis; conditions: K1, 72 h
Plasmodium falciparum [5] = test: Antimalarial activity against chloroquine-sensitive Plasmodium falciparum NF54
Plasmodium falciparum [6] = test: Antimalarial activity against Plasmodium falciparum D6 after 48 hrs by in presence of [3H]hypoxanthine
Plasmodium falciparum [7] = test: Antimalarial activity against Plasmodium falciparum W2 after 48 hrs by in presence of [3H]hypoxanthine
Plasmodium falciparum [8] = test: Antimalarial activity against Plasmodium falciparum HB3 after 48 hrs by [3H]-hypoxanthine incorporation assay
Plasmodium falciparum [9] = test: Antimalarial activity against chloroquine-resistant Plasmodium falciparum K1 after 48 hrs by [3H]-hypoxanthine incorporation assay
Plasmodium falciparum [10] = test: Antimalarial activity against Plasmodium falciparum 3D7 after 72 hrs by SYBR green dye-based assay; conditions: 3D7, 72 h
Plasmodium falciparum [11] = test: Antimalarial activity against Plasmodium falciparum NF54
Plasmodium falciparum [12] = test: Antimalarial activity against blood stages of chloroquine-sensitive Plasmodium falciparum 3D7
Plasmodium falciparum [13] = test: Antimalarial activity against blood stages of chloroquine-resistant Plasmodium falciparum K1

SMILES: C[C@H]1[C@@H](Oc2ccc(C(F)(F)F)cc2)O[C@@H]2O[C@]3(C)CC[C@H]4[C@H](C)CC[C@@H]1[C@@]24OO3
- IC50 (Plasmodium falciparum [1]): 5.92 nM

SMILES: C[C@H]1[C@@H](Oc2cccc3ccccc23)O[C@@H]2O[C@]3(C)CC[C@H]4[C@H](C)CC[C@@H]1[C@@]24OO3
- IC50 (Plasmodium falciparum [2]): 7.06 nM
- IC50 (Plasmodium falciparum [1]): 8.89 nM

SMILES: CCC(=O)OC1O[C@@H]2O[C@]3(C)CC[C@H]4[C@H](C)CC[C@@H]([C@H]1C)[C@@]24OO3 (stereo partly specified)
- EC50 (Plasmodium falciparum [3]): 3.1 nM
- EC50 (Plasmodium falciparum [4]): 0.3 nM

SMILES: C[C@@H]1CC[C@H]2[C@@H](C)C(CC(=O)c3ccc(C(=O)CC4O[C@@H]5O[C@]6(C)CC[C@H]7[C@H](C)CC[C@@H]([C@H]4C)[C@@]57OO6)cc3)O[C@@H]3O[C@]4(C)CC[C@@H]1[C@]32OO4 (stereo partly specified)
- IC50 (Plasmodium falciparum [5]): 1.9 nM

SMILES: CCOC(=O)CC[C@@H](O[C@H]1O[C@@H]2O[C@]3(C)CC[C@H]4[C@H](C)CC[C@@H]([C@H]1C)[C@@]24OO3)c1ccccc1
- IC50 (Plasmodium falciparum [6]): 0.496 ng/mL
- IC50 (Plasmodium falciparum [7]): 0.213 ng/mL

SMILES: CCOC(=O)CC[C@@H](O[C@H]1O[C@@H]2O[C@]3(C)CC[C@H]4[C@H](C)CC[C@@H]([C@H]1C)[C@@]24OO3)c1ccc([N+](=O)[O-])cc1
- IC50 (Plasmodium falciparum [6]): 0.563 ng/mL
- IC50 (Plasmodium falciparum [7]): 0.23 ng/mL

SMILES: CC(C)CNCCOC1O[C@@H]2O[C@]3(C)CC[C@H]4[C@H](C)CC[C@@H]([C@H]1C)[C@@]24OO3 (stereo partly specified)
- EC50 (Plasmodium falciparum [3]): 6.8 nM
- EC50 (Plasmodium falciparum [4]): 2.4 nM

SMILES: COP(=O)(OCC[C@H]1O[C@@H]2O[C@]3(C)CC[C@H]4[C@H](C)CC[C@@H]([C@H]1C)[C@@]24OO3)OCC[C@H]1O[C@@H]2O[C@]3(C)CC[C@H]4[C@H](C)CC[C@@H]([C@H]1C)[C@@]24OO3
- IC50 (Plasmodium falciparum [8]): 0.09 nM
- IC50 (Plasmodium falciparum [9]): 0.2 nM

SMILES: C[C@@H]1CC[C@H]2[C@@H](C)C(CC(=O)c3cccc(C(=O)CC4O[C@@H]5O[C@]6(C)CC[C@H]7[C@H](C)CC[C@@H]([C@H]4C)[C@@]57OO6)c3)O[C@@H]3O[C@]4(C)CC[C@@H]1[C@]32OO4 (stereo partly specified)
- IC50 (Plasmodium falciparum [5]): 1.9 nM

SMILES: C[C@@H]1CC[C@H]2[C@@H](C)C(OC(=O)Cc3ccccc3)O[C@@H]3O[C@]4(C)CC[C@@H]1[C@]32OO4 (stereo partly specified)
- EC50 (Plasmodium falciparum [3]): 2.4 nM
- EC50 (Plasmodium falciparum [4]): 0.5 nM

SMILES: CCOC(=O)CC[C@H](O[C@H]1O[C@@H]2O[C@]3(C)CC[C@H]4[C@H](C)CC[C@@H]([C@H]1C)[C@@]24OO3)c1ccccc1
- IC50 (Plasmodium falciparum [6]): 0.459 ng/mL
- IC50 (Plasmodium falciparum [7]): 0.144 ng/mL

SMILES: C[C@H]1[C@H](OC(=O)CCC(=O)Nc2ccc3ncnc(Nc4ccc(Cl)c(Cl)c4)c3c2)O[C@@H]2O[C@]3(C)CC[C@H]4[C@H](C)CC[C@@H]1[C@@]24OO3
- EC50 (Plasmodium falciparum [10]): 1.4 nM

SMILES: CC1=C(/C=C/c2ccccc2)O[C@@H]2O[C@]3(C)CC[C@H]4[C@H](C)CC[C@@H]1[C@@]24OO3
- IC50 (Plasmodium falciparum [11]): 16 nM

SMILES: C[C@H]1[C@H](Oc2cccc3ccccc23)O[C@@H]2O[C@]3(C)CC[C@H]4[C@H](C)CC[C@@H]1[C@@]24OO3
- IC50 (Plasmodium falciparum [2]): 2.88 nM
- IC50 (Plasmodium falciparum [1]): 2.88 nM

SMILES: COc1cc(OC)c(C2O[C@@H]3O[C@]4(C)CC[C@H]5[C@H](C)CC[C@@H]([C@H]2C)[C@@]35OO4)cc1C1O[C@@H]2O[C@]3(C)CC[C@H]4[C@H](C)CC[C@@H]([C@H]1C)[C@@]24OO3 (stereo partly specified)
- IC50 (Plasmodium falciparum [5]): 1.3 nM

SMILES: C=CC1=C(C)[C@@H]2CC[C@@H](C)[C@@H]3CC[C@]4(C)OO[C@@]23[C@H](O1)O4
- IC50 (Plasmodium falciparum [11]): 28 nM

SMILES: C[C@H]1[C@H](OC(=O)CCC(=O)Oc2ccc(Nc3ncnc4ccccc34)cc2)O[C@@H]2O[C@]3(C)CC[C@H]4[C@H](C)CC[C@@H]1[C@@]24OO3
- EC50 (Plasmodium falciparum [10]): 3.8 nM

SMILES: CC1=C(/C=C\c2ccccc2)O[C@@H]2O[C@]3(C)CC[C@H]4[C@H](C)CC[C@@H]1[C@@]24OO3
- IC50 (Plasmodium falciparum [11]): 8.1 nM

SMILES: C[C@H]1[C@@H](CCOP(=O)(OCC[C@H]2O[C@@H]3O[C@]4(C)CC[C@H]5[C@H](C)CC[C@@H]([C@H]2C)[C@@]35OO4)Oc2ccccc2)O[C@@H]2O[C@]3(C)CC[C@H]4[C@H](C)CC[C@@H]1[C@@]24OO3
- IC50 (Plasmodium falciparum [8]): 0.18 nM
- IC50 (Plasmodium falciparum [9]): 0.5 nM

SMILES: C[C@@H]1CC[C@H]2[C@@H](C)C(=O)O[C@@H]3O[C@@]4(C)CC[C@@H]1[C@]32OO4 [ARTEMISININ]
- EC50 (Plasmodium falciparum [12]): 12.1 nM
- IC50 (Plasmodium falciparum [13]): 0.68 ng/mL (≈ 2.41 nM)
